Data: patent publication US20100204222A1, “PYRIDOPYRIMIDINE DERIVATIVES AS P13 KINASE INHIBITORS” (GlaxoSmithKline, LLC, priority 2007, published 2010)

Target: T1, PI3Kα (Homo sapiens, UniProt P42336)
T1 construct: His; made in house
Assay: PI3K alpha TR-FRET assay / PI3K alpha Leadseeker SPA assay
Type: biochemical
Conditions: in at least one experimental run; read-out: IC50 value against PI3Kα
Experimental: Compounds of the present invention were tested according to the following assays and found as inhibitors of PI3 kinases, particularly PI3Kα. The exemplified compounds were tested and found active against PI3Kα. The IC50's ranged from about 1 nM to 10 μM.
The PI3-Kinase assay has been developed and optimized from a kit produced by Upstate (Millipore). Briefly, this kit contains a biotinylated PIP3 which forms a HTRF (homogeneous time-resolved fluorescence energy transfer) complex when mixed with a Europium labeled anti-GST monoclonal antibody, a GST tagged pleckstrin homology (PH) domain, and Streptavidin-Allophycocyanin (APC). The unlabeled PIP3 produced by PI 3-Kinase activity displaces biotin-PIP3 from the complex resulting in a loss of energy transfer and thus a decrease in signal. Millipore, PI 3-Kinase (human) HTRF™ Assay, technical document associated with catalog# 33-017
Compounds are serially diluted (3-fold in 100% DMSO) across a polypropylene 120 μL mother plate from column 1 to column 12 and column 13 to column 24, leaving columns 6 and 18 containing only DMSO to yield 11 concentrations for each test compound. Once titrations are made, 0.1 μL is transferred to the assay plates (Greiner 784075). This assay plate contains three controls: column 6 with DMSO, and column 18 with alternating 20 μM wortmannin and 40 μM PIP3. […] The PIP3 control is dispensed into the plate manually via a matrix pipettor, 1 μL of 200 μM PIP3 in 1× Reaction buffer to wells 18 B, D, F, H, J, L, N, P.
The PI3-Kinase assay has been developed and optimized from a kit produced by Upstate (Millipore). The assay kit (cat: 33-017) contains seven reagents: 1) 4× Reaction Buffer, 2) PIP2 (1 mM), 3) Stop A, 4) Stop B, 5) Detection Mix A, 6) Detection Mix B, 7) Detection Mix C. In addition the following items were obtained or purchased, PI3Kinase (prepared in-house), 4×PI3K Detection Buffer (Millipore), dithiothreitol (Sigma, D-5545), Adenosine-5′-triphosphate (ATP, Sigma, A-6419), PIP3 (1,2-dioctanoyl-sn-glycero-3[phosphoinositil-3,4,5-triphosphate]tetraammonium salt (Avanti polar lipids, 850186P), DMSO (Sigma, 472301), Wortmannin (Sigma, W-1628).
Prepare 1×PI3Kinase Reaction Buffer by diluting stock 1:4 with de-ionized water, freshly prepared DTT is added at a final concentration of 5 mM on the day of use. Enzyme addition and compound preincubation is initiated by the addition of 2.5 μL of 2× enzyme solution, PI3K alpha in 1× reaction buffer, to all wells using a Multidrop Combi. Plates are incubated at room temperature for 15 minutes. Substrate addition and reaction initiation is completed by the addition of 2.5 μL of 2× substrate solution, PIP2 and ATP in 1× reaction buffer, to all wells using a Multidrop Combi. […] Incubate one hour, evaluate the HTRF signal on the Envision plate reader. […]

T1 sequence (P42336 whole entry): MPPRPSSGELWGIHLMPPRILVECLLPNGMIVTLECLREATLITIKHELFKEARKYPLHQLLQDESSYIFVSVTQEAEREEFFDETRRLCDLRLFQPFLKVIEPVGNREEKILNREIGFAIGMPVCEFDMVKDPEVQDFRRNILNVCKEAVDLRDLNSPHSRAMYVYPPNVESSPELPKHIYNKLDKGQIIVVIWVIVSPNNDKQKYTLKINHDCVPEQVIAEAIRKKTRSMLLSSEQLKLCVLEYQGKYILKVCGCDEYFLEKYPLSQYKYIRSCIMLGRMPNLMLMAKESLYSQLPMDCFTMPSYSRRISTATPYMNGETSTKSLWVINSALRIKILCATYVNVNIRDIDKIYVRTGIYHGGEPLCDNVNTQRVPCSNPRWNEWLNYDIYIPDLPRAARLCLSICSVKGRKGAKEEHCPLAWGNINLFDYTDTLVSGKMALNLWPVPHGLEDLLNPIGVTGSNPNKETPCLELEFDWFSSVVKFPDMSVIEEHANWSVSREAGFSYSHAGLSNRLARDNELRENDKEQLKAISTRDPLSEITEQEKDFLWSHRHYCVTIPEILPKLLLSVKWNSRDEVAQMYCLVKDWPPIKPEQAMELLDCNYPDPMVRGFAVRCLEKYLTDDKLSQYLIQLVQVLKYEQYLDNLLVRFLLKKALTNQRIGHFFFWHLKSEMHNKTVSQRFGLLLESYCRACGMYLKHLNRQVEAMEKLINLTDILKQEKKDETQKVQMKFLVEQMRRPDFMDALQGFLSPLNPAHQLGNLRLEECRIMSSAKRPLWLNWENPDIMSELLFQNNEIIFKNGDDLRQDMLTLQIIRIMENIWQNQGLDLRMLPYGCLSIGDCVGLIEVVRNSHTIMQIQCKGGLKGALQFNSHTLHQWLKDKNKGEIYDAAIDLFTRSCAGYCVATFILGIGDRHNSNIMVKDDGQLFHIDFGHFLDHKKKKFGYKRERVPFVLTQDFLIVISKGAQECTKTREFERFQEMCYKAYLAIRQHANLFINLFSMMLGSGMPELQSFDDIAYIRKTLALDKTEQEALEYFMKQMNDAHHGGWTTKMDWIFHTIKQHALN
T1 sequence (P27986 whole entry partner): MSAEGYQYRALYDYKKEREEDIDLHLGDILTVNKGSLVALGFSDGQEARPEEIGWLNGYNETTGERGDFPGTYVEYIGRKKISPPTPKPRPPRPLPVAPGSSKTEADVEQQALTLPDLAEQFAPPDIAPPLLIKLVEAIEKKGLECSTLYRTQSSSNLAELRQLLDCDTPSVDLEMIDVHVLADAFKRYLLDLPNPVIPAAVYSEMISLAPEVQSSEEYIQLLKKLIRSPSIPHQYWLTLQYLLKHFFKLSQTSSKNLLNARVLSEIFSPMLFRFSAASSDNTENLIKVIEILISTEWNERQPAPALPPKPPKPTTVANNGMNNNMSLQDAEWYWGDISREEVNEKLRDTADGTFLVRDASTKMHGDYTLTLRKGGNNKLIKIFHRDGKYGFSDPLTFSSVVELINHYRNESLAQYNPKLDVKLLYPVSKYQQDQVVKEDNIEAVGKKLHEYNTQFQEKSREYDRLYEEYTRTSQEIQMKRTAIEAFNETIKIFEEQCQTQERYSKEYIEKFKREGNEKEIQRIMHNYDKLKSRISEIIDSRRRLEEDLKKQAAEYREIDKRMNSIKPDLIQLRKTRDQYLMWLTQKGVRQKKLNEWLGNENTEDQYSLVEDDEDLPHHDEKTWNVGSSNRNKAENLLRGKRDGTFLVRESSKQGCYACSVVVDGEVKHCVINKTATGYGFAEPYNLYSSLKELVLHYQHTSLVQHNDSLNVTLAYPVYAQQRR

Question: For `CN(C)c1ncnc2ccc(-c3cncc(NS(=O)(=O)c4ccccc4)c3)nc12` [Example 1, N-{5-[4-(dimethylamino)pyrido[3,2-d]pyrimidin-6-yl]-3-pyridinyl}benzenesulfonamide], which IC50 is on record?
Answer: 2 nM

Question: With `O=S(=O)(Nc1cncc(-c2ccc3ncnc(N4CCOCC4)c3n2)c1)c1ccccc1` [Example 2, N-{5-[4-(4-morpholinyl)pyrido[3,2-d]pyrimidin-6-yl]-3-pyridinyl}benzenesulfonamide] as the compound, how does the IC50 read?
Answer: 0.7 nM

Question: `COc1ncc(-c2ccc3ncnc(N4CCOCC4)c3n2)cc1NS(=O)(=O)C1CC1` [Example 5, N-{2-(methyloxy)-5-[4-(4-morpholinyl)pyrido[3,2-d]pyrimidin-6-yl]-3-pyridinyl}cyclopropanesulfonamide] was tested. Which IC50 did it give?
Answer: 0.5 nM

Question: For `O=S(=O)(Nc1cc(-c2ccc3ncnc(N4CCOCC4)c3n2)cnc1Cl)c1ccc(F)cc1F` [Example 7, N-{2-chloro-5-[4-(4-morpholinyl)pyrido[3,2-d]pyrimidin-6-yl]-3-pyridinyl}-2,4-difluorobenzenesulfonamide], which IC50 is on record?
Answer: 0.02 nM
